Test results as given in patent US8013006B2.
Like-named read-outs stand apart in the source and are kept apart here.

Columns and labels:
wild-type poliovirus = format: cell-based; conditions: Hela cells, MOI 0.1, one day; for WT-PV CPE (1 μM)*: 1 μM compound; for WT-PV CPE (10 μM)*: 10 μM compound; for WT-PV CPE (100 μM) *: 100 μM compound
HCV replicon = assay: microbe, parasite or virus in culture; format: cell-based
[1] = tested on: cap-dependent translation; assay: Western blot of Fluc reporter protein in pLuc cells; format: cell-based, human; conditions: 20 hours
[2] = Replicon IC50 values are determined by firefly luciferase signal, bicistronic replicon, 2 days, read-out: Replicon IC5Os
[3] = Hepatitis C virus, 48 h, read-out: Replicon IC5Os μM

Row | Structure (SMILES) | WT-PV CPE (1 μM)* (wild-type poliovirus) | WT-PV CPE (10 μM)* (wild-type poliovirus) | WT-PV CPE (100 μM) * (wild-type poliovirus) | IC50 (HCV replicon; [2]) | melting point | IC50 (HCV replicon; [3]) | luciferase reporter protein level (cap-dependent), Western blot [1]
1 | COc1ccc(-n2cc(C#N)c3ccc(OC)cc32)cc1 [Compound 4] | 1 | 2 | 3 | > 2 µM |  |  | 
2 | CCn1cc(C#N)c2ccc(OC(C)C)cc21 [Compound 10] | 2 | 2 | 3 | > 2 µM |  |  | 
3 | CCn1c(-c2ccc(OC)cc2)c(C#N)c2ccc(OC)cc21 [Compound 19] | 1 | 2 | 3 | > 2 µM |  |  | 
4 | COc1ccc2c(C#N)c(C)n(-c3ccc4c(c3)OCO4)c2c1 [Compound 24] | 2 | 2 | 3 | 0.5 to 2 µM |  |  | 
5 | CCCn1c(-c2ccc(NS(=O)(=O)CCCCl)cc2)c(C#N)c2ccc(OC)cc21 [Compound 850] |  |  |  |  | 179 to 180 °C | 0.5 to 2 µM | 
6 | CCCn1c(-c2ccc(NS(=O)(=O)C3CC3)cc2)c(C#N)c2ccc(OC)cc21 [Compound 851] |  |  |  |  | 186 to 187 °C | 0.5 to 2 µM | 
7 | CCn1c(-c2ccc(NC(=O)C3CCC3)cc2)c(C#N)c2cc(OC)ccc21 [Compound 859] |  |  |  |  | 191 to 192 °C | 0.5 to 2 µM | 
8 | COc1ccc(C[C@H](N)C(=O)N[C@H]2[C@@H](O)[C@H](n3cnc4c(N(C)C)ncnc43)O[C@@H]2CO)cc1 [puromycin] |  |  |  |  |  |  | inhibited
